Assays:
[1] = system: primary cerebellar granule neurons (CGNs); assay: MPP+-induced primary CGNs damage, cell viability by MTT; format: cell-based, Sprague-Dawley rats; details: pre-treated 6 μM to 50 μM for 2 hours, then 150 μM MPP+ for 36 hours
Description: Primary cerebellar granule neurons (CGNs) were prepared from 8 days old Sprague-Dawley rats, as described in a previous publication (Du, Bales et al. 1997). CGNs cultured in vitro for 7 days were pre-treated with serial concentrations of compounds 1-5 from 6 μM to 50 μM respectively for 2 hours, vehicle group was incubated with 0.1% DMSO. The cells were then exposed to 150 μM MPP^+ for 36 hours. For assessment of the cell viability, 15 μl of 5 mg/ml MTT solution was added to each well containing cell in 100 μl of medium, and the plates were incubated for 4 hours in a humidified incubator at 37° C. After incubation, 100 μl of absolute DMSO was added and incubated for 10 min. Absorbance at 570 nm of each well was measured with a microplate reader.

zebrafish larvae = assay: MPTP-induced reduction of total distance traveled of zebrafish larvae; format: in vivo; details: 3 dpf larvae co-treated with 200 μM MPTP for 4 days
Description: The 3 dpf zebrafish larvae were co-treated with 200 μM MPTP and various concentrations of compound 1 for 4 days. At 7 dpf, the total distance the larvae traveled was recorded using a 96-well plate (with 1 fish/well and 12 larvae per group) filled with 200 μl embryo medium. Larvae were allowed to accommodate in the system for an hour before data acquisition. The swimming pattern of each larva was recorded for 10 min in 3 times, with each record session separated by 10 min. The total distance traveled was estimated as the distance (in mm) that the larva had moved during one session (10 min).

[2] = system: TH-positive dopaminergic neurons in the SNpc; assay: TH immunohistochemistry of SNpc in MPTP-injected mice; format: in vivo, C57BL/6J mice
Description: Adult male C57BL/6J mice (8-10 weeks of age, 18-22 g) were used in this study. The animals were maintained in 12/12 h light/dark cycle and allowed access to food and water ad libitum. They were allowed to acclimate for 7 days before treatment. […] Then the mice were injected intraperitoneally (i.p.) with 20 mg/kg MPTP hydrochloride (Sigma Aldrich, St. Louis, Mo.), at 2 h internal for total 4 injections. Normal control group were received saline (0.1 mL/10 g) by i.p. One hour prior each MPTP injection, compound 1 (5, 10 and 20 mg/kg), rasagiline (1 mg/kg) and equal volume of vehicle (olive oil, 0.1 mL/10 g) were administrated by i.g. Then, compound 1, rasagiline or vehicle was given by i.g. once per day for total 7 days (day 1-7). Each of six groups was comprised of 10 mice. Mice were sacrificed for tissue preparation on the day 9 as described in FIG. 6. Mice in each group were anesthetized and perfused intracardially with 0.9% sodium chloride containing heparin, and then fixed with 4% paraformaldehyde (PFA). […] The results were analyzed by counting the numbers of TH-positive cells at ×10 magnifications on a stereomicroscope (BX51, Olympus Corp. Japan). TH-positive cells in 8 position-matched sections of each mouse were counted manually by operator who was blinded to the drug treatment. […]

[3] = system: zebrafish dopaminergic neurons; assay: MPTP-induced dopaminergic neuron loss in zebrafish, whole-mount TH immunostaining; format: in vivo; details: co-treatment with 200 μM MPTP for 48 hours
Description: Zebrafish embryo was dechorinated at 1 day post fertilization (dpf) and was cultured under co-treatment of 200 μM MPTP and various concentrations of compound 1 for 48 hours. Afterwards, zebrafish was fixed in 4% paraformaldehyde in PBS for 5 hours, rinsed and stored at −20° C. in 100% EtOH. Whole-mount immunostaining was done by standard methods (Bitzur, Kam et al. 1994). Further, compound 1 can protect MPTP-induced dopaminergic neuron loss in zebrafish in a dose-dependent manner with Emax at the concentration of 5 μM as shown in FIG. 3B in which the results were expressed quantitatively as percentages of area of TH-positive cells in comparison to untreated control group.

PC12 cells = assay: 6-OHDA-induced PC12 cell damage and cytotoxicity on PC12 cells, cell viability by MTT; format: cell-based, Rat
Description: Rat pheochromocytoma cells (PC12) cells were seeded in c100 cm dishes at a density of 1.5˜2×10^6 cells/dish. After culturing in a medium with a low serum level (F-12K medium with 0.5% FBS) for 24 hours, the cells were pretreated with serial concentrations of compound 1 from 6 μM to 50 μM for 12 hours. The cells were then exposed to 1 mM 6-OHDA for 2 hours. Cell viability of cells was assessed similarly as described in Example 5.

MPTP-injected mice = assay: Behavioral testing (pole, rotarod, footprint) in MPTP-injected mice; format: in vivo, C57BL/6J mice; details: 5, 10 and 20 mg/kg i.g., 7 days, MPTP 20 mg/kg i.p. x4
Description: Adult male C57BL/6J mice (8-10 weeks of age, 18-22 g) were used in this study. The animals were maintained in 12/12 h light/dark cycle and allowed access to food and water ad libitum. They were allowed to acclimate for 7 days before treatment. […] Then the mice were injected intraperitoneally (i.p.) with 20 mg/kg MPTP hydrochloride (Sigma Aldrich, St. Louis, Mo.), at 2 h internal for total 4 injections. Normal control group were received saline (0.1 mL/10 g) by i.p. One hour prior each MPTP injection, compound 1 (5, 10 and 20 mg/kg), rasagiline (1 mg/kg) and equal volume of vehicle (olive oil, 0.1 mL/10 g) were administrated by i.g. Then, compound 1, rasagiline or vehicle was given by i.g. once per day for total 7 days (day 1-7). Each of six groups was comprised of 10 mice. […] All the tests were done between 9 am and 2 pm under normal animal room lighting. The pole test was performed to detect impairment of limb movement. A table tennis ball (5 cm diameter) was equipped on the top of a vertical pole (55 cm length and 1 cm diameter). The pole was wrapped with a double layer of gauze to avoid slipping. The animal was placed head upward on the table tennis ball. […] The system logs the fall as the end of the experiment for that mouse, and the total time on the rotarod was recorded. […] The average retention time on the rod was calculated. […] Their footsteps were recorded on a white absorbing paper.

[4] = system: primary cerebellar granule neurons (CGNs); assay: Synergistic neuroprotective effect of compound 1 and chrysin on MPP+-induced primary CGNs damage; format: cell-based, Sprague-Dawley rats; details: 25 and 50 μM of compound 1, p<0.05
Description: Primary cerebellar granule neurons (CGNs) were prepared from 8 days old Sprague-Dawley rats as described (Zhang et al., 2012). […] The cell viability was estimated similarly as in Example 5.
CGNs were also co-treated with compound 1 and chrysin to explore the pharmacological interaction between two compounds.

Cc1ccc(O)c(C(CCC(=O)O)C(C)C)c1 (racemic) [Compound 5, 4-(2-hydroxy-5-methylphenyl)-5-methylhexanoic acid]
concentration of Emax of neuroprotective effect on MPP+-induced primary SD rat CGNs damage [1]: 50 µM

Cc1ccc(O)c([C@H](CCC(=O)O)C(C)C)c1 [Compound 1, (R)-4-(2-hydroxy-5-methylphenyl)-5-methylhexanoic acid]
effect on MPTP-induced reduction of total distance traveled (zebrafish larvae): attenuated MPTP-induced reduction of total distance traveled of the larvae in a dose dependent manner | effect on MPTP-induced TH-positive cell body loss in SNpc ([2]; compound 1 5, 10 and 20 mg/kg i.g., pre- and post-treatment, 7 days): significantly reduced the MPTP-induced TH-positive cell body loss in a dose-dependent manner | effect on MPTP-induced DA neuron injury [3]: attenuated MPTP-induced DA neuron injury in a dose-dependent manner | concentration of Emax of protection against MPTP-induced dopaminergic neuron loss in zebrafish ([3]; area of TH-positive cells): 5 µM | concentration of Emax of neuroprotective effect on MPP+-induced primary SD rat CGNs damage [1]: 50 µM | concentration of maximum efficacy (Emax) of neuroprotective effect on 6-OHDA-induced PC12 cell damage (PC12 cells; 1 mM 6-OHDA for 2 hours): 50 µM | cytotoxicity on PC12 cells (PC12 cells; all tested concentrations (6 μM to 50 μM), 12 hours): did not exhibit any cytotoxicity | effect on 6-OHDA cytotoxicity to PC12 cells (PC12 cells; pretreated 6 μM to 50 μM for 12 hours, then 1 mM 6-OHDA for 2 hours): could alleviate the cytotoxic effect in a dose-dependent manner | effect on movement abnormalities (pole test, foot printing duration and stride length, rotarod) (MPTP-injected mice): largely corrected the movement abnormalities in a dose-dependent manner | cell viability vs MPP+ alone [4]: significantly enhanced

CC(C)[C@H](CCC(=O)O)C1=CC(C)(O)CCC1=O (stereo partly drawn) [Compound 2, (4S)-4-(3-hydroxy-3-methyl-6-oxocyclohex-1-enyl)-5-methylhexanoic acid]
concentration of Emax of neuroprotective effect on MPP+-induced primary SD rat CGNs damage [1]: 50 µM

CC(C)[C@@H](CCC(=O)O)C1=CC(C)(O)CCC1=O (stereo partly drawn) [Compound 3, (4R)-4-(3-hydroxy-3-methyl-6-oxocyclohex-1-enyl)-5-methylhexanoic acid]
concentration of Emax of neuroprotective effect on MPP+-induced primary SD rat CGNs damage [1]: 25 µM

Cc1ccc(O)c([C@@H](CCC(=O)O)C(C)C)c1 [Compound 4, (S)-4-(2-hydroxy-5-methylphenyl)-5-methylhexanoic acid]
concentration of Emax of neuroprotective effect on MPP+-induced primary SD rat CGNs damage [1]: 12 µM

O=c1cc(-c2ccccc2)oc2cc(O)c(O)c(O)c12 [baicalein, reference compound]
protection of PC12 cells against 6-OHDA-induced neuronal damage (PC12 cells; positive control at 100 μM): obviously protected

C#CCN[C@@H]1CCc2ccccc21 [rasagiline, reference compound]
effect on MPTP-induced TH-positive cell body loss in SNpc ([2]; rasagiline 1 mg/kg i.g., same schedule): prevented against the MPTP-induced TH-positive cell body loss

Reference: patent publication US10011555B2, “Methods of treating Parkinson's disease” (University of Macau, priority 2013, dated 2018)
